In ChEMBL document CHEMBL6103648, “AI-Driven Discovery of Highly Specific and Efficacious hCES2A Inhibitors for Ameliorating Irinotecan-Triggered Gut Toxicity” (J Med Chem, 2025) one finds IC50 data, which are given here for 21 molecules.

The experiment can be described thus: Inhibition of human CES2A using fluorescein diacetate as substrate preincubated for 3 mins followed by substrate addition measured after 30 mins by fluorescence based assay.
By IC50 is commonly meant the midpoint of a concentration-inhibition curve. `CCN(CC)C(=O)COc1ccc(C(C)=O)cc1OC` had an IC50 of 460 nM.
Turning to `CCN(C)C(=O)Oc1ccc(CCC(=O)N2CCc3ccccc3C2)cc1OC`, the IC50 is 6.05 nM.
`CCN(C)C(=O)Oc1ccc(C(=O)N2CCC(C(=O)c3ccc(F)cc3)CC2)cc1OC` displayed an IC50 of 10.3 nM.
With `CCN(C)C(=O)Oc1ccc(/C=C/C(=O)N2CCC(Cc3ccccc3)CC2)cc1` the figure was 1.46 nM.
Consider `CCN(C)C(=O)Oc1ccc(C(=O)N2CCc3ccccc3C2)cc1OC`, for which it took 2.06 nM to reach half-maximal inhibition (IC50).
With `CCN(C)C(=O)Oc1ccc(C(=O)N2CCC(c3ccccc3)CC2)cc1OC` the figure was 1.47 nM.
With `CCN(C)C(=O)Oc1ccc(CCC(=O)N2CCC(Cc3ccccc3)CC2)cc1OC` the figure was 3.31 nM.
As to `CCOc1cc(C(=O)N2CCC(Cc3ccccc3)CC2)ccc1OC(=O)N(C)CC`, the half-maximal inhibitory concentration (IC50) was 1.13 nM.
On to `CCN(C)C(=O)Oc1ccc(CCC(=O)N2CCC(c3ccccc3)CC2)cc1OC`, for which half-maximal inhibition (IC50) was put at 4.85 nM.
With `CCN(C)C(=O)Oc1ccc(C(=O)N2CCN(Cc3ccccc3)CC2)cc1OC` the figure was 5.93 nM.
Turning to `CCN(C)C(=O)Oc1ccc(C(=O)N2CCC(Cc3ccccc3)CC2)cc1OCC1CC1`, the IC50 was 1.02 nM.
Consider `CCN(C)C(=O)Oc1ccc(/C=C/C(=O)N2CCC(c3ccccc3)CC2)cc1OC`, for which the IC50 was 3.18 nM.
With `CCN(C)C(=O)Oc1ccc(CCC(=O)N2CCN(Cc3ccccc3)CC2)cc1OC` the figure was 57.3 nM; with `CCN(CC)C(=O)Oc1ccc(CCC(=O)N2CCC(Cc3ccccc3)CC2)cc1OC`, 34 nM.
With `CCN(C)C(=O)Oc1ccc(C(=O)N2CCC(CCCc3ccccc3)CC2)cc1OC` the figure was 2.94 nM; with `COc1cc(CCC(=O)N2CCC(Cc3ccccc3)CC2)ccc1OC(=O)N(C)C`, 4.1 nM; with `CN(C)C(=O)C(CCN1CCC(O)(c2ccc(Cl)cc2)CC1)(c1ccccc1)c1ccccc1` [LOPERAMIDE], 404 nM.
With `CCN(C)C(=O)Oc1ccc(C(=O)N2CCC(Cc3ccc(F)cc3)CC2)cc1OC` the figure was 1.31 nM; with `COc1cc(CCC(=O)N2CCC(Cc3ccccc3)CC2)ccc1OC(=O)N1CCOCC1`, 7.27 nM; with `CNC(=O)COc1ccc(C(C)=O)cc1OC`, 462 nM.
Molecule `CCN(C)C(=O)Oc1ccc(CCC(=O)N2CCc3ccccc3C2)cc1` yielded a 50% inhibitory concentration (IC50) of 7.39 nM.
